Measured values taken from PMC10447463, “Data-mining unveils structure–property–activity correlation of viral infectivity enhancing self-assembling peptides” (Nature Communications, 2023).
Where “and” joins values, the source holds several entries; their conditions need not be identical. Equal values may be shown once. Read-outs that look alike come from different tables or passages of the source.

Assays:
[1] = assay type: physicochemical; design: key to Fibril / Fibril Formation / TEM 2cat / Fibril: 1 = fibrils present; 0 non-fibrillar structures; conditions: for Fibril / Fibril Formation: 1 mg/mL, uranyl acetate stain, qualitative
[2] = β-sheet content by ATR-FT-IR; assay type: physicochemical; conditions: for b -sheet / %: Fig. S7 panel A, β-sheet content by ATR-FT-IR
In short: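 First, PNF was ultrafiltered (3 kDa MWCO, 16200 x g, 45 min, 4 °C). Next, filtrate and unfiltered sample were lyophilized and taken up in DMSO. Then fluorescamine was added for 20 min at RT before reading ex 365/em 470 nm. β-sheet: ATR FT-IR of lyophilized 1 mg/mL PNF.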

[3] = test system: HIV-1 infection of TZM-bl cells; experiment: HIV-1 infectivity enhancement assay, β-galactosidase luminescence; assay type: cell-based; conditions: for Rel-EFC / Log10 Infection Rel EFC: 1.3 µM peptide; for Rel-EFC: infection relative to EF-C (QCKIKQIINMWQ = 1); for Log10 Infection Rel EFC: log10 of infection relative to EF-C; for Log Infectivity: Log10 infection relative to EF-C, TZM-bl cells; for Log10 Infection Rel EF-C: HIV-1 infection of TZM-bl cells
[4] = assay type: physicochemical; conditions: for ThT Cat. / ThT-Fluorescence (categorical): ThT-active if fluorescence at least twice the control
In short: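 Preformed peptide fibrils (1 mg/mL) mixed with 50 µM ThT in PBS, 15 min at RT, fluorescence ex 440/em 488 nm versus PBS blank, triplicates. Zeta potential: peptides at 1 mg/mL in PBS pH 7.4, aged 1 d at RT, diluted in 1 mM KCl, Smoluchowski from electrophoretic mobility.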

[5] = Feb2021, Log10 of infectivity relative to EF-C
[6] = Feb2021, figures match the 1.3 µM column
[7] = Feb2021, infectivity relative to virus only
[8] = Feb2021, n-fold enhancement relative to EF-C
[9] = Feb2021, n-fold infectivity relative to EF-C
[10] = infectivity class (low / medium / high) of each library peptide, main list in c1-c6, same classes repeated in sub-lists of sequences containing the hydrophobicity/charge patterns P+,H0,P+,H0,P0,H0,P0, P+,H0,P0,H0,P0,H0,P0, P+,H0,P0,H0
[11] = log10 of HIV-1 infection of TZM-bl cells relative to EF-C, Fig S15 source data, asymmetric std dev errors
[12] = ThT fluorescence relative to blank (42.1851851851852 a.u.)
[13] = ThT fluorescence relative to blank, blank = 42.1851851851852
[14] = Feb2021, 1.3 µM value relative to virus only (0 µM)
[15] = Feb2021, unrounded values of the 1.3 µM column
[16] = Feb2021 run, infectivity n-fold relative to virus alone
[17] = Feb2021 run, log10 of infectivity relative to EF-C
[18] = Feb2021 run, n-fold infectivity relative to EF-C
[19] = relative to blank 42.1851851851852 a.u.
[20] = TEM, 1 = fibrils present, 0 = non-fibrillar
[21] = TEM, 1 = fibrils present, 0 = non-fibrillar structures
[22] = category: fibrils present or non-fibrillar
[23] = Fig. S7 panel A (plotted against β-sheet content), asymmetric std dev errors
[24] = Log10 of infection rate relative to EF-C, Figure 3A source data
[25] = infection rate relative to EF-C, log10, data of Figure 2D
[26] = infection rate relative to EF-C, log10, source data of Figure 2C
[27] = Log10 of infection relative to EF-C, all peptides of FigS16
[28] = ThT fluorescence category, 1 if Rel. ThT >2

Row | Substance | TEM: 1= fibrils, 0= aggregates (micelle), 0.5 = aggregates and fibrils, -1 = nothing obersved, STD prep [1] | FTIR ß-sheet content/ % ([2]; ATR-FT-IR) | Log10 of Rel to EFC (Feb2021) [3, 5] | Rel-to EFC (Feb-2021) [3, 8] | Rel-to EFC (Feb-2021) [3, 9] | infectivity [3, 10] | Log10 Inf. rel. to EF-C [3, 11] | Tht rel to blank (42.1851851851852) [4, 12] | Tht category (> 1.5 to blank = +) ([4]; category 1/0) | FTIR ß-sheet content/ % [2] [%] | n-fold to virus (Feb2021) [3, 14] | Absolute Infectivity / RLU /s (Feb2021) [3, 15] [RLU /s] | n-fold to virus (Feb2021) [3, 16] | Log10 of Rel to EFC (Feb2021) [3, 17] | Rel-to EFC (Feb-2021) [3, 18] | Tht rel to blank (42.1851851851852) [4, 19] | Fibril / Fibril Formation ([1]; TEM) | Fibril [1, 20] | Fibril [1, 21] | b -sheet / % [2] [%] | further results
1 | RGDCKFKFQF [TM64/ CN15] | 1 | 47% and 46.68% | -0.8186 | 0.1519 | 0.1519 | medium | -0.8186 | 6.788 | 1 (ThT. Cat is 1, if Rel. ThT >2) |  |  |  |  |  |  |  |  |  |  |  | Absolute Infectivity / RLU /s (Feb2021) [3, 6]: 4637 RLU /s; n-fold to virus (Feb2021) [3, 7]: 6.381; Tht rel to blank (42.1851851851852) [4, 13]: 6.788
2 | CKIKIQINM [MG2] | 1 | 43% and 42.84% | 0.2012 | 1.589 | 1.589 | high | 0.2012 | 2.648 | 1 (ThT. Cat is 1, if Rel. ThT >2) | 42.84 | 66.78 | 30273.33333 | 66.78 | 0.2012 | 1.589 | 2.648 |  |  |  |  | infectivity ([3]; infectivity class (low / medium / high) of the peptide in the sequence-pattern analysis, Fig. S22-A4, class limits not given): high
3 | CKIKIQINMWQ |  |  |  |  |  |  |  |  |  |  |  |  |  |  |  |  | 1 | 1 | 1 | 44.89 | TEM 2cat ([1]; Fig S10 panel D, fibril category by TEM): 1; Fibril ([1]; Fig S10 panel E): 1; TEM 2cat [1, 22]: 1; Rel-EFC [3]: 0,7; Log10 Infection Rel EFC [3]: -0,16; Log Infectivity [3, 23]: -0.155; Log Infectivity ([3]; Fig. S7 panel B (plotted against CR), rounded to two decimals, asymmetric std dev errors): -0.16; Log10 Infection Rel EF-C [3, 24]: -0.16; Log10 Infection Rel EF-C [3, 25]: -0.155; Log10 Infection Rel EF-C [3, 26]: -0.155; Log10 of Rel to EFC (Feb2021) [3, 27]: -0.16; Tht category (> 2 to blank = +) ([4]; Fig S10 panel D): 1 (ThT. Cat is 1, if Rel. ThT >2); ThT Cat. ([4]; Fig S10 panel E): 1 (ThT. Cat is 1, if Rel. ThT >2); ThT Cat, ([4]; ThT category, 1 if Rel. ThT >2): 1 (ThT. Cat is 1, if Rel. ThT >2); ThT Cat. [4, 28]: 1 (ThT. Cat is 1, if Rel. ThT >2); ThT Cat. / ThT-Fluorescence (categorical) [4]: 1 (ThT. Cat is 1, if Rel. ThT >2)
4 | CKIKIQINMWQ [MG1] | 1 | 45% and 44.89% | -0.155 | 0.6998 | 0.6998 | medium | -0.155 | 4.566 | 1 (ThT. Cat is 1, if Rel. ThT >2) | 44.89 | 29.41 | 18623.33333 | 29.41 | -0.155 | 0.6998 | 4.566 |  |  |  |  | 
5 | KFKFQFNM [BL6a] | 1 | 40% and 40.31% | -0.3265 | 0.4715 | 0.4715 | medium | -0.3265 | 1.202 | 0 (ThT-inactive (N-Fold <2)) | 40.31 | 19.81 | 7067 | 19.81 | -0.3265 | 0.4715 | 1.202 |  |  |  |  | 
6 | KLKQLL |  |  |  |  |  |  |  |  |  |  |  |  |  |  |  |  | 0 | 0 | 0 | 31.78 | TEM 2cat ([1]; Fig S10 panel D): 0; TEM 2cat ([1]; FigS12 panel A, fibril category by TEM): 0; Fibril ([1]; FigS12 panel B, TEM): 0; Rel-EFC [3]: 0,01; Log10 Infection Rel EFC [3]: -2,13; Log Infectivity [3, 23]: -2.131; Log10 Infection Rel EF-C [3, 24]: -2.13; Log10 Infection Rel EF-C [3, 25]: -2.131; Log10 Infection Rel EF-C [3, 26]: -2.131; Tht category (> 2 to blank = +) ([4]; Fig S10 panel D): 0 (ThT-inactive (N-Fold <2)); Tht category (> 2 to blank = +) ([4]; FigS12 panel A): 0 (ThT-inactive (N-Fold <2)); ThT Cat, ([4]; FigS12 panel B): 0 (ThT-inactive (N-Fold <2)); ThT Cat, ([4]; ThT category, 1 if Rel. ThT >2): 0 (ThT-inactive (N-Fold <2)); ThT Cat. [4, 28]: 0 (ThT-inactive (N-Fold <2)); ThT Cat. / ThT-Fluorescence (categorical) [4]: 0 (ThT-inactive (N-Fold <2))
7 | KFKFQFNMW |  |  |  |  |  |  |  |  |  |  |  |  |  |  |  |  | 1 | 1 | 1 | 38.191 | TEM 2cat ([1]; Fig S10 panel D): 1; TEM 2cat [1, 22]: 1; Rel-EFC [3]: 0,45; Log10 Infection Rel EFC [3]: -0,35; Log Infectivity [3, 23]: -0.3503; Log10 Infection Rel EF-C [3, 24]: -0.35; Log10 Infection Rel EF-C [3, 25]: -0.3503; Log10 Infection Rel EF-C [3, 26]: -0.3503; Log10 of Rel to EFC (Feb2021) [3, 27]: -0.35; Abs. Inf. ([3]; absolute infection signal, HIV-1 on TZM-bl cells, β-galactosidase luminescence): 6690; Log10 Inf. rel. to EF-C ([3]; log10 of HIV-1 infection of TZM-bl cells relative to EF-C (EF-C = 0)): -0.3503; Tht category (> 2 to blank = +) ([4]; Fig S10 panel D): 0 (ThT-inactive (N-Fold <2)); ThT Cat, ([4]; ThT category, 1 if Rel. ThT >2): 0 (ThT-inactive (N-Fold <2)); ThT Cat. ([4]; ThT category, 1 if Rel. ThT >2): 0 (ThT-inactive (N-Fold <2)); ThT Cat. / ThT-Fluorescence (categorical) [4]: 0 (ThT-inactive (N-Fold <2))
8 | CRFRVPF [CN8] | 0 | 11.43% |  |  | 0.01992 | low | -1.701 |  | 0 (ThT-inactive (N-Fold <2)) |  | 0.837 | 376.7 |  |  |  | 0.9438 |  |  |  |  | Log10 of Rel to EFC (Feb2021) ([3]; Feb2021, log10 of infectivity relative to EF-C): -1.701
9 | CKFKQFF [CK15] | 0.5 | 45.41% | -2.171 |  | 0.00675 | low | -2.171 | 1.34 | 0 (ThT-inactive (N-Fold <2)) | 45.41 |  |  | 0.2836 | -2.171 | 0.00675 | 1.34 |  |  |  |  | Absolute Infectivity / RLU /s (Feb2021) [3, 6]: 260 RLU /s; Rel-to EFC (Feb-2021) ([3]; Feb2021, infectivity enhancement relative to EF-C): 0.00675; n-fold to virus (Feb2021) [3, 7]: 0.2836; Rel-to EFC ([3]; Fig S8 panels B, D, infectivity enhancement relative to EF-C): 0.00675; n-fold to virus ([3]; Fig S8 panels B, D, infectivity n-fold relative to virus alone): 0.2836; Tht rel to blank (42.1851851851852) [4, 13]: 1.34
10 | KAKAQANMWQ [JG3] | 0.5 | 43% and 42.81% | -2.146 | 0.007152 | 0.007152 | low | -2.146 | 0.9886 | 0 (ThT-inactive (N-Fold <2)) | 42.81 | 0.3005 | 193.3 | 0.3005 | -2.146 | 0.007152 | 0.9886 |  |  |  |  | Tht category (> 1.5 to blank = +) ([4]; FigS26): 0 (Tht category (> 1.5 to blank = +))
